One block for each compound: values may come before it.
Experiments:
Rattus norvegicus [1] = assay: Memory enhancement effect in scopolamine-induced Wistar rat model of amnesia assessed as exploration time for familiar object in retention trial at 0.15 mg/kg, po administered as single dose and measured on day 9 by novel object recognition test (reference value: 8.59 sec); assay type: functional
Rattus norvegicus [2] = assay: Memory enhancement effect in time-delay induced Wistar rat model of amnesia assessed as exploration time for novel object at 3 mg/kg, po administered as single dose after acquisition trial by novel object recognition test (reference value: 12.81 sec); assay type: functional
Rattus norvegicus [3] = assay: Memory enhancement effect in time-delay induced Wistar rat model of amnesia assessed as exploration time for object2 in acquisition trial at 0.05 mg/kg, po for 7 days and measured on day 8 by novel object recognition test (reference value: 11.76 sec); assay type: functional
Rattus norvegicus [4] = assay: Memory enhancement effect in time-delay induced Wistar rat model of amnesia assessed as exploration time for object1 in acquisition trial at 0.05 mg/kg, po for 7 days and measured on day 8 by novel object recognition test (reference value: 13.73 sec); assay type: functional
[5] = Drug concentration in Wistar rat plasma at 3 mg/kg, po after 2 hrs by LC-MS/MS analysis; assay type: ADME, organism-based
Rattus norvegicus [6] = assay: Memory enhancement effect in time-delay induced Wistar rat model of amnesia assessed as exploration time for familiar object at 3 mg/kg, po administered as single dose after acquisition trial by novel object recognition test (reference value: 10.6 sec); assay type: functional
Rattus norvegicus [7] = assay: Memory enhancement effect in time-delay induced Wistar rat model of amnesia assessed as exploration time for familiar object in retention trial at 0.05 mg/kg, po for 7 days and measured on day 8 by novel object recognition test (reference value: 10.20 sec); assay type: functional
Rattus norvegicus [8] = assay: Memory enhancement effect in time-delay induced Wistar rat model of amnesia assessed as exploration time for object1 at 3 mg/kg, po administered as single dose after acquisition trial by novel object recognition test (reference value: 19.09 sec); assay type: functional
Rattus norvegicus [9] = assay: Memory enhancement effect in time-delay induced Wistar rat model of amnesia assessed as increase in exploration time for novel object in retention trial at 3 mg/kg, po administered as single dose and measured on day 9 by novel object recognition test (reference value: 12.06 sec); assay type: functional
Rattus norvegicus [10] = assay: Improvement in social recognition time delay-induced Sprague-Dawley rat model of amnesia assessed as increase in reduction in social investigation time at 3 mg/kg, po administered as single dose prior to 1 hr training and measured after 30 mins (reference value: 0.39%); assay type: functional; set-up: scale not given: the % may be the effect or the level left
Rattus norvegicus [11] = assay: Memory enhancement effect in scopolamine-induced Wistar rat model of amnesia assessed as exploration time for object1 in acquisition trial at 0.05 mg/kg, po for 7 days and measured on day 8 by novel object recognition test (reference value: 16.11 sec); assay type: functional
[12] = Drug level in Wistar rat brain at 3 mg/kg, po after 2 hrs by LC-MS/MS analysis; assay type: ADME, organism-based; details: read-out: Drug uptake
Rattus norvegicus [13] = assay: Memory enhancement effect in time-delay induced Wistar rat model of amnesia assessed as exploration time for object1 in acquisition trial at 3 mg/kg, po administered as single dose and measured on day 8 by novel object recognition test (reference value: 13.95 sec); assay type: functional
Rattus norvegicus [14] = assay: Memory enhancement effect in time-delay induced Wistar rat model of amnesia assessed as exploration time for object2 at 3 mg/kg, po administered as single dose after acquisition trial by novel object recognition test (reference value: 21.07 sec); assay type: functional
Rattus norvegicus [15] = assay: Memory enhancement effect in scopolamine-induced Wistar rat model of amnesia assessed as exploration time for object2 in acquisition trial at 0.05 mg/kg, po for 7 days and measured on day 8 by novel object recognition test (reference value: 15.63 sec); assay type: functional
Rattus norvegicus [16] = assay: Improvement in social recognition scopolamine-induced Sprague-Dawley rat model of amnesia assessed as increase in reduction in social investigation time at 3 mg/kg, po administered as single dose prior to 1 hr training and measured after 30 mins (reference value: 9.81%); assay type: functional; set-up: scale not given: the % may be the effect or the level left
Rattus norvegicus [17] = assay: Memory enhancement effect in time-delay induced Wistar rat model of amnesia assessed as exploration time for familiar object in retention trial at 3 mg/kg, po administered as single dose and measured on day 9 by novel object recognition test (reference value: 13.05 sec); assay type: functional
Rattus norvegicus [18] = assay: Memory enhancement effect in scopolamine-induced Wistar rat model of amnesia assessed as increase in exploration time for novel object in retention trial at 0.15 mg/kg, po administered as single dose and measured on day 9 by novel object recognition test (reference value: 12.09 sec); assay type: functional
[19] = Ratio of drug level in brain to plasma in Wistar rat at 3 mg/kg, po after 2 hrs by LC-MS/MS analysis; assay type: ADME, organism-based; details: brain and plasma, read-out: BPR
Rattus norvegicus [20] = assay: Improvement in social recognition scopolamine-induced Sprague-Dawley rat model of amnesia assessed as increase in reduction in social investigation time at 0.15 mg/kg, po for 7 days measured after 24 hrs (Rvb =6.59%); assay type: functional; set-up: scale not given: the % may be the effect or the level left
Rattus norvegicus [21] = assay: Memory enhancement effect in scopolamine-induced Wistar rat model of amnesia assessed as exploration time for familiar object in retention trial at 0.05 mg/kg, po for 7 days and measured on day 8 by novel object recognition test (reference value: 8.59 sec); assay type: functional
Rattus norvegicus [22] = assay: Memory enhancement effect in scopolamine-induced Wistar rat model of amnesia assessed as exploration time for novel object in retention trial at 0.05 mg/kg, po for 7 days and measured on day 8 by novel object recognition test (reference value: 12.09 sec); assay type: functional
Rattus norvegicus [23] = assay: Memory enhancement effect in scopolamine-induced Wistar rat model of amnesia assessed as exploration time for object2 in acquisition trial at 0.15 mg/kg, po administered as single dose and measured on day 8 by novel object recognition test (reference value: 15.63 sec); assay type: functional
Rattus norvegicus [24] = assay: Memory enhancement effect in time-delay induced Wistar rat model of amnesia assessed as exploration time for novel object in retention trial at 0.05 mg/kg, po for 7 days and measured on day 8 by novel object recognition test (reference value: 15.37 sec); assay type: functional
Rattus norvegicus [25] = assay: Memory enhancement effect in scopolamine-induced Wistar rat model of amnesia assessed as exploration time for object1 in acquisition trial at 0.15 mg/kg, po administered as single dose and measured on day 8 by novel object recognition test (reference value: 16.11 sec); assay type: functional
Rattus norvegicus [26] = assay: Improvement in social recognition time delay-induced Sprague-Dawley rat model of amnesia assessed as increase in reduction in social investigation time at 0.15 mg/kg, po for 7 days and measured on day 9 (reference value: -0.5%); assay type: functional; set-up: scale not given: the % may be the effect or the level left
Rattus norvegicus [27] = assay: Memory enhancement effect in time-delay induced Wistar rat model of amnesia assessed as exploration time for object2 in acquisition trial at 3 mg/kg, po administered as single dose and measured on day 8 by novel object recognition test (reference value: 16.33 sec); assay type: functional
[28] = Drug concentration in Swiss mouse brain at 40 mg/kg, sc after 30 mins by LC-MS analysis; assay type: ADME, organism-based; details: read-out: Drug uptake
[29] = Drug concentration in Swiss mouse plasma at 40 mg/kg, sc after 30 mins by LC-MS analysis; assay type: ADME, organism-based
[30] = Ratio of drug level in Swiss mouse brain to plasma at 40 mg/kg, sc after 30 mins by LC-MS analysis; assay type: ADME, organism-based; details: brain and plasma, read-out: BPR
[31] = Drug level in Sprague-Dawley rat cerebrospinal fluid at 3 mg/kg, po; assay type: ADME, organism-based; details: in vivo
[32] = Ratio of drug level in rat brain to plasma at 10 mg/kg, ip by HPLC-LC/MS analysis; assay type: ADME, organism-based; details: brain and plasma, read-out: BPR
[33] = Drug level in rat plasma at 10 mg/kg, ip after 120 mins by HPLC-LC/MS analysis; assay type: ADME, organism-based
[34] = Drug level in DBA/2 mouse brain at 0.3 mg/kg, iv after 90 mins; assay type: ADME, organism-based; details: read-out: Drug uptake
[35] = Drug level in NSA mouse brain at 0.3 mg/kg, po after 120 to 150 mins; assay type: ADME, organism-based; details: in vivo, read-out: Drug uptake
[36] = Drug level in DBA/2 mouse brain at 0.3 mg/kg, iv after 10 mins; assay type: ADME, organism-based; details: read-out: Drug uptake
[37] = Ratio of drug level in Sprague-Dawley rat brain to plasma at 3 mg/kg, po after 1 hr; assay type: ADME, organism-based; details: brain and plasma, read-out: BPR
[38] = Drug concentration in Sprague-Dawley rat brain at 3 mg/kg, po after 1 hr; assay type: ADME, organism-based; details: read-out: Drug uptake
[39] = Drug concentration in Sprague-Dawley rat plasma at 3 mg/kg, po after 1 hr; assay type: ADME, organism-based

Structure (SMILES): CCC(=O)c1cc(-c2ccc(Cl)cc2)n(-c2ccc(S(N)(=O)=O)cc2)c1C
Time (Rattus norvegicus [1]): 5.7 s
Time (Rattus norvegicus [2]): 14.61 s
Time (Rattus norvegicus [3]): 12.59 s
Time (Rattus norvegicus [4]): 11.58 s
concentration at 2 h [5]: 700 to 1050 nM
Time (Rattus norvegicus [6]): 8.05 s
Time (Rattus norvegicus [7]): 10.19 s
Time (Rattus norvegicus [8]): 12.7 s
Time (Rattus norvegicus [9]): 28.31 s
Activity (Rattus norvegicus [10]): 35.28%
Time (Rattus norvegicus [11]): 14.7 s
concentration at 2 h [12]: 110 to 140 nM
Time (Rattus norvegicus [13]): 25.62 s
Time (Rattus norvegicus [14]): 17.17 s
Time (Rattus norvegicus [15]): 14.75 s
Activity (Rattus norvegicus [16]): 50.67%
Time (Rattus norvegicus [17]): 11.47 s
Time (Rattus norvegicus [18]): 16.33 s
Kp at 2 h [19]: 0.1 to 0.2
Activity (Rattus norvegicus [20]): 31.8%
Time (Rattus norvegicus [21]): 5.7 s
Time (Rattus norvegicus [22]): 16.33 s
Time (Rattus norvegicus [23]): 14.75 s
Time (Rattus norvegicus [24]): 14.16 s
Time (Rattus norvegicus [25]): 14.7 s
Activity (Rattus norvegicus [26]): 65.75%
Time (Rattus norvegicus [27]): 20.37 s

Structure (SMILES): OCc1sc(Nc2ccc(F)c(C(F)(F)F)c2)nc1-c1ccncc1
concentration at 0.5 h [28]: 1910 ng/g
concentration at 0.5 h [29]: 5920 ng/mL
Kp at 0.5 h [30]: 0.3

Structure (SMILES): O=C(Nc1cc(Cl)ccc1O)Nc1cc(C(F)(F)F)ccc1Cl
Kp [32]: 0.5
concentration at 2 h [33]: 172 ng/mL

Results, then the compound that gave them:

Drug uptake [31]: 12.1 ng/mL
Structure (SMILES): COc1ccc(Cl)cc1C(=O)N[C@@H]1[C@@H](c2ccc(S(N)(=O)=O)cc2)C1(C)C

concentration at 1.5 h [34]: 300 nM
concentration [35]: 150 to 300 nM
concentration at 10 min [36]: 1000 nM
Structure (SMILES): Cc1cc(/C(=C/Nc2ccc(Cl)cc2)C(=O)Nc2ccc(Cl)cc2)on1 [AVL-3288]

Kp at 1 h [37]: 1.18
concentration at 1 h [38]: 50.8 ng/g
concentration at 1 h [39]: 43.1 ng/mL
Structure (SMILES): COc1cc(OC)c(NC(=O)Nc2cc(C)on2)cc1Cl
